Values of other authors as cited in US7956212B2 (XenoPort, Inc., priority 2004, dated 2011).
Values belong to the molecule of their own block, whether it stands above or below them.

Assays:
[1] = rats
[2] = patients, administered alone
[3] = following oral administration

absorption following rectal administration [1]: poor
SMILES: C[C@@](Cc1ccc(O)c(O)c1)(NN)C(=O)O [carbidopa]

half-life of levodopa in plasma [2]: about 50 min
SMILES: N[C@@H](Cc1ccc(O)c(O)c1)C(=O)O [levodopa, L-3,4-dihydroxyphenylalanine]

levels of levodopa [3]: low
SMILES: CC(C)(C)C(=O)Oc1ccc(C[C@H](N)C(=O)O)cc1O [NB-355]
